Measured values: patent US20190256626A1, “SURFACTANTS AND METHODS FOR MAKING SAME” (REGENTS OF THE UNIVERSITY OF MINNESOTA, priority 2016, published 2019)
Marks after values point to notes of the source that are not given here.

What was measured:
[1] = TGA of Dispersions A-J (oxaprozin or 5-methyl-5-phenylhydantoin) and pure drugs; type: physicochemical; conditions: pure drugs
Experimental: (§1) Thermogravimetric analysis (TGA) of Dispersions A-J was performed using a Q500 instrument from TA Instruments. The decomposition temperature (Td) at 5% was recorded for each dispersion and Td,1% was recorded for the pure drugs. Td,5% was recorded for the dispersions due to the hydrophilic properties of the surfactants, which required removal of surface moisture before the materials began to decompose. Differential Scanning Calorimetry (DSC) experiments were performed on Dispersions A-J and pure oxaprozin and 5-methyl-5-phenylhydantoin using a Discovery Series instrument from TA Instruments. Each dispersion was heated twice to Td,5%. The pure compounds were heated twice to Td,1%. The heating rate in all experiments was 10° C./min. […] These values approached the Tg value of pure surfactants (135.76° C.) as the ratio of the molecular weight of the poly(N-isopropylacrylamide) hydrophilic segment in kDa/mol to (m+1) increased. Generally, the dispersions including oxaprozin yielded lower Tg values. Without being bound by theory, the lower Tg values might be attributable to the larger size of oxaprozin, which would further disrupt surfactant packing.

[2] = DSC of Dispersions A-J (oxaprozin or 5-methyl-5-phenylhydantoin) and pure drugs; type: physicochemical; conditions: heating rate 10° C./min
Experimental: as §1

Structure (SMILES)	Td,1% [1]	First Heat Tg [2]
CC1(c2ccccc2)NC(=O)NC1=O (stereo not shown) [5-methyl-5-phenylhydantoin]	188* ° C.	134 °C
O=C(O)CCc1nc(-c2ccccc2)c(-c2ccccc2)o1 [Oxaprozin, oxaprozin]	206* ° C.	21 °C
